# Reference: PubChem BioAssay (NCI)
#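 Following 48 hours of exposure in 96-well plates, responses at five concentrations were used to interpolate endpoints linearly. Here, GI50 denotes the concentration required for 50% inhibition of growth. TGI denotes the concentration required for complete inhibition of growth.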
# Key:
# Assay in all cases: DTP human tumour cell line panel, 48 h
# 786-0 renal = test system: 786-0 renal
# A498 renal = test system: A498 renal
# A549 NSCLC = test system: A549 NSCLC
# ACHN renal = test system: ACHN renal
# BT-549 breast = test system: BT-549 breast
# CAKI-1 renal = test system: CAKI-1 renal
# CCRF-CEM leukemia = test system: CCRF-CEM leukemia
# COLO 205 colon = test system: COLO 205 colon
# DU-145 prostate = test system: DU-145 prostate
# EKVX NSCLC = test system: EKVX NSCLC
# HCC-2998 colon = test system: HCC-2998 colon
# HCT-116 colon = test system: HCT-116 colon
# HCT-15 colon = test system: HCT-15 colon
# HL-60(TB) leukemia = test system: HL-60(TB) leukemia
# HOP-62 NSCLC = test system: HOP-62 NSCLC
# HOP-92 NSCLC = test system: HOP-92 NSCLC
# HT29 colon = test system: HT29 colon
# IGROV1 ovarian = test system: IGROV1 ovarian
# KM12 colon = test system: KM12 colon
# LOX IMVI melanoma = test system: LOX IMVI melanoma
# M14 melanoma = test system: M14 melanoma
# MALME-3M melanoma = test system: MALME-3M melanoma
# MCF7 breast = test system: MCF7 breast
# MDA-MB-231 breast = test system: MDA-MB-231 breast
# MDA-MB-435 = test system: MDA-MB-435
# MOLT-4 leukemia = test system: MOLT-4 leukemia
# NCI-H226 lung = test system: NCI-H226 lung
# NCI-H23 lung = test system: NCI-H23 lung
# NCI-H460 lung = test system: NCI-H460 lung
# NCI-H522 lung = test system: NCI-H522 lung
# NCI/ADR-RES ovarian = test system: NCI/ADR-RES ovarian
# OVCAR-3 ovarian = test system: OVCAR-3 ovarian
# OVCAR-4 ovarian = test system: OVCAR-4 ovarian
# OVCAR-5 ovarian = test system: OVCAR-5 ovarian
# OVCAR-8 ovarian = test system: OVCAR-8 ovarian
# PC-3 prostate = test system: PC-3 prostate
# RPMI-8226 leukemia = test system: RPMI-8226 leukemia
# RXF 393 renal = test system: RXF 393 renal
# SF-268 CNS = test system: SF-268 CNS
# SF-295 CNS = test system: SF-295 CNS
# SF-539 CNS = test system: SF-539 CNS
# SK-MEL-2 melanoma = test system: SK-MEL-2 melanoma
# SK-MEL-28 melanoma = test system: SK-MEL-28 melanoma
# SK-MEL-5 melanoma = test system: SK-MEL-5 melanoma
# SK-OV-3 ovarian = test system: SK-OV-3 ovarian
# SN12C renal = test system: SN12C renal
# SNB-19 CNS = test system: SNB-19 CNS
# SNB-75 CNS = test system: SNB-75 CNS
# SR leukemia = test system: SR leukemia
# SW-620 colon = test system: SW-620 colon
# T-47D breast = test system: T-47D breast
# TK-10 renal = test system: TK-10 renal
# U251 CNS = test system: U251 CNS
# UACC-257 melanoma = test system: UACC-257 melanoma
# UACC-62 melanoma = test system: UACC-62 melanoma
# UO-31 renal = test system: UO-31 renal
smiles,measurement,setting,value
CN(C)c1ccc(Nc2c3ccccc3nc3cc(NC(=O)CCN4CCCC4)ccc23)cc1,GI50,786-0 renal,0.343 µM
same,TGI,786-0 renal,1.38 µM
same,GI50,A498 renal,0.442 µM
same,TGI,A498 renal,1.98 µM
same,GI50,A549 NSCLC,0.0688 µM
same,TGI,A549 NSCLC,1.75 µM
same,GI50,ACHN renal,0.321 µM
same,TGI,ACHN renal,1.12 µM
same,GI50,BT-549 breast,1.3 µM
same,TGI,BT-549 breast,2.73 µM
same,GI50,CAKI-1 renal,0.594 µM
same,TGI,CAKI-1 renal,2.19 µM
same,GI50,CCRF-CEM leukemia,0.0778 µM
same,TGI,CCRF-CEM leukemia,1.38 µM
same,GI50,COLO 205 colon,0.309 µM
same,TGI,COLO 205 colon,1.76 µM
same,GI50,DU-145 prostate,0.155 µM
same,TGI,DU-145 prostate,1.19 µM
same,GI50,EKVX NSCLC,0.964 µM
same,TGI,EKVX NSCLC,2.62 µM
same,GI50,HCC-2998 colon,0.627 µM
same,TGI,HCC-2998 colon,2.26 µM
same,GI50,HCT-116 colon,0.346 µM
same,TGI,HCT-116 colon,1.61 µM
same,GI50,HCT-15 colon,0.816 µM
same,TGI,HCT-15 colon,2.2 µM
same,GI50,HL-60(TB) leukemia,0.19 µM
same,TGI,HL-60(TB) leukemia,0.763 µM
same,GI50,HOP-62 NSCLC,0.235 µM
same,TGI,HOP-62 NSCLC,1.56 µM
same,GI50,HOP-92 NSCLC,0.379 µM
same,TGI,HOP-92 NSCLC,2.14 µM
same,GI50,HT29 colon,0.475 µM
same,TGI,HT29 colon,2.06 µM
same,GI50,IGROV1 ovarian,0.291 µM
same,TGI,IGROV1 ovarian,1.83 µM
same,GI50,KM12 colon,0.497 µM
same,TGI,KM12 colon,1.88 µM
same,GI50,LOX IMVI melanoma,0.21 µM
same,TGI,LOX IMVI melanoma,1.46 µM
same,GI50,M14 melanoma,0.692 µM
same,TGI,M14 melanoma,2 µM
same,GI50,MALME-3M melanoma,1.12 µM
same,TGI,MALME-3M melanoma,2.41 µM
same,GI50,MCF7 breast,0.0711 µM
same,TGI,MCF7 breast,1.61 µM
same,GI50,MDA-MB-231 breast,1.23 µM
same,TGI,MDA-MB-231 breast,2.92 µM
same,GI50,MDA-MB-435,1.22 µM
same,TGI,MDA-MB-435,2.49 µM
same,GI50,MOLT-4 leukemia,0.042 µM
same,TGI,MOLT-4 leukemia,1.07 µM
same,GI50,NCI-H226 lung,0.577 µM
same,TGI,NCI-H226 lung,2.59 µM
same,GI50,NCI-H23 lung,0.29 µM
same,TGI,NCI-H23 lung,1.35 µM
same,GI50,NCI-H460 lung,0.0423 µM
same,TGI,NCI-H460 lung,0.683 µM
same,GI50,NCI-H522 lung,0.541 µM
same,TGI,NCI-H522 lung,2.21 µM
same,GI50,NCI/ADR-RES ovarian,2.91 µM
same,TGI,NCI/ADR-RES ovarian,12.9 µM
same,GI50,OVCAR-3 ovarian,0.81 µM
same,TGI,OVCAR-3 ovarian,2.25 µM
same,GI50,OVCAR-4 ovarian,0.57 µM
same,TGI,OVCAR-4 ovarian,2.16 µM
same,GI50,OVCAR-5 ovarian,0.89 µM
same,TGI,OVCAR-5 ovarian,2.74 µM
same,GI50,OVCAR-8 ovarian,0.533 µM
same,TGI,OVCAR-8 ovarian,2.96 µM
same,GI50,PC-3 prostate,0.577 µM
same,TGI,PC-3 prostate,2.17 µM
same,GI50,RPMI-8226 leukemia,0.185 µM
same,TGI,RPMI-8226 leukemia,0.711 µM
same,GI50,RXF 393 renal,0.466 µM
same,TGI,RXF 393 renal,1.69 µM
same,GI50,SF-268 CNS,0.473 µM
same,TGI,SF-268 CNS,1.88 µM
same,GI50,SF-295 CNS,0.362 µM
same,TGI,SF-295 CNS,1.51 µM
same,GI50,SF-539 CNS,0.65 µM
same,TGI,SF-539 CNS,1.92 µM
same,GI50,SK-MEL-2 melanoma,1.75 µM
same,TGI,SK-MEL-2 melanoma,3.33 µM
same,GI50,SK-MEL-28 melanoma,1.46 µM
same,TGI,SK-MEL-28 melanoma,2.85 µM
same,GI50,SK-MEL-5 melanoma,1.04 µM
same,TGI,SK-MEL-5 melanoma,2.32 µM
same,GI50,SK-OV-3 ovarian,0.413 µM
same,TGI,SK-OV-3 ovarian,1.78 µM
same,GI50,SN12C renal,0.197 µM
same,TGI,SN12C renal,1.25 µM
same,GI50,SNB-19 CNS,0.305 µM
same,TGI,SNB-19 CNS,1.64 µM
same,GI50,SNB-75 CNS,0.381 µM
same,TGI,SNB-75 CNS,1.72 µM
same,GI50,SR leukemia,0.0421 µM
same,TGI,SR leukemia,1.24 µM
same,GI50,SW-620 colon,0.252 µM
same,TGI,SW-620 colon,1.68 µM
same,GI50,T-47D breast,0.455 µM
same,TGI,T-47D breast,2.43 µM
same,GI50,TK-10 renal,1.13 µM
same,TGI,TK-10 renal,3 µM
same,GI50,U251 CNS,0.227 µM
same,TGI,U251 CNS,1.58 µM
same,GI50,UACC-257 melanoma,1.65 µM
same,TGI,UACC-257 melanoma,3.51 µM
same,GI50,UACC-62 melanoma,0.774 µM
same,TGI,UACC-62 melanoma,2.11 µM
same,GI50,UO-31 renal,0.595 µM
same,TGI,UO-31 renal,1.92 µM
